The test system of series [1] is Common garden slugs (Arion distinctus). Kind of series: slug mucosal contact test (mucus production and body weight loss). The format is in vivo. The following applies: for Mucus loss initial test / Mucus loss 24 test: 30-min contact, % of body weight; for Mucus loss initial test: 60 mg test substance, mean n = 6, initial treatment; for Mucus loss 24 test: second treatment 24 hours later; for Mucus loss 24 test / Remaining body weight after 24 h and 48 h: mean n = 6; for Potency - loss of body weight relative to metaldehyde after deduction of weight loss from the control: after 48 hours; for Potency - loss of body weight relative to metaldehyde after deduction of weight loss from the control / Potency - loss of mucus relative to metaldehyde: metaldehyde = 100; for Combined mucus loss: combined losses of mucus for the two tests; for toxicity in mollusc foot contact tests relative to metaldehyde: contact with the mucus membrane of molluscs; for Potency - loss of mucus relative to metaldehyde: from combined mucus loss; for Remaining body weight after 24 h and 48 h: percentage of the initial body weight; for Reduction in toxic response relative to metaldehyde: Loss of body weight (Table 3) / Reduction in toxic response relative to metaldehyde: Loss of mucus (Table 2): weight for weight basis. The protocol: To investigate relative toxicity of aldehydes to molluscs, tests were conducted using a method adapted from Adriaens et al. The Mucosal Toxicity of Different Benzalkonium Chloride Analogues Evaluated with an Alternative Test. Pharmaceutical Research, Vol. 18, pages 937-941, 2001.
Common garden slugs (Arion distinctus) weighing between 1.9 g and 5.2 g were collected from a UK suburban garden and placed into vented plastic boxes lined with paper towels moistened with phosphate buffered saline. The boxes were kept in the shade inside a greenhouse (10° C. minimum) and fed with lettuce and commercial dog food. Experiments were conducted on six slugs for each test treatment using petri dishes containing Whitman Grade 1 general purpose filter papers (90 mm diameter). Filter papers were wetted to saturation with phosphate buffered saline (pH 7.4) and allowed to drain before placing in the petri dishes. At the beginning of each test slugs were placed individually in a petri dish which had been prepared 3 hours previously as a control or with 60 mg of the test substance consisting of fine powdered metaldehyde or a liquid aldehyde. After 30-min incubation slugs were removed and returned to petri dishes with filter papers wetted only with the phosphate buffered saline. The slugs were weighed separately before and after treatment. The change in weight caused by the treatment was calculated and expressed as % (w/w) of the body weight. The petri dishes containing the test medium were also weighed before and after the treatment. The weight of mucus produced was calculated and expressed as % (w/w) of the body weight. The treatment and measurements were repeated 24 hour later and final weights taken after a second 24 hour period.

The conditions of series [2]: cited from earlier work; for Water solubility: at 25 C.; for VP: at 25 deg C.
The subject of series [3] is rats. The series can be described thus: acute oral toxicity in rats (LD50). The format is in vivo, rat. The following applies: weight for weight basis.
Series [4] concerns rats. The following applies: cited from earlier work.

Consider `CCCCCCCCCC=O` [1-decanal], for which, in series [1], the “Mucus loss initial test” value was found to be 3.28 % w/w, the “Mucus loss 24 test” value is reported as 2.64 % w/w, the “Potency - loss of body weight relative to metaldehyde after deduction of weight loss from the control” value is listed as 40% and the Combined mucus loss was 5.92 % w/w. Also, in series [1], the “toxicity in mollusc foot contact tests relative to metaldehyde” value is reported as “less than single fold reductions”, the “Potency - loss of mucus relative to metaldehyde” value is 62%, the “Reduction in toxic response relative to metaldehyde: Loss of body weight (Table 3)” value is listed as 0.40 and the “Reduction in toxic response relative to metaldehyde: Loss of mucus (Table 2)” value came to 0.62. For the same compound, in series [1] (24 h after initial treatment), the “Remaining body weight after 24 h and 48 h” value (shortened to “Remaining body weight”) is 79.7 wt %. For the same compound, the “Remaining body weight” value in series [1] (48 h after initial treatment) is listed as 74.1 wt %. Also, in series [2], the Water solubility was 43.52 µg/mL and the VP was 0.235 mm Hg. The “oral toxicity in rats lower relative to metaldehyde” value in series [3] is given as “approximately 8 fold”. Moreover, the “LD50 acute oral toxicity” value in series [4] was “LD 50 3096 mg/kg”.
As to `CCCCCCC=O` [1-heptanal], in series [1], the “Mucus loss initial test” value is 2.77 % w/w, the “Mucus loss 24 test” value is given as 0.55 % w/w, the “Potency - loss of body weight relative to metaldehyde after deduction of weight loss from the control” value amounted to 33% and the Combined mucus loss was 3.32 % w/w. Moreover, in series [1], the “toxicity in mollusc foot contact tests relative to metaldehyde” value was “less than single fold reductions”, the “Potency - loss of mucus relative to metaldehyde” value is 35%, the “Reduction in toxic response relative to metaldehyde: Loss of body weight (Table 3)” value came out at 0.35 and the “Reduction in toxic response relative to metaldehyde: Loss of mucus (Table 2)” value is 0.35. Besides, in series [1] (24 h after initial treatment), the “Remaining body weight” value was determined as 85.2 wt %. In addition, the “Remaining body weight” value in series [1] (48 h after initial treatment) is reported as 76.5 wt %. Moreover, in series [2], the Water solubility is 1167 µg/mL and the VP was 3.52 mm Hg. Besides, in series [3], the “oral toxicity in rats lower relative to metaldehyde” value is on record as “approximately 8 fold”. Moreover, the “LD50 acute oral toxicity” value in series [4] was “LD50 > 5000 mg/kg”.
As for `CCCCCCCCC=O` [1-nonanal], in series [2], the VP is 0.564 mm Hg. In series [4], the “LD50 acute oral toxicity” value was “LD 50 > 5000 mg/kg”.
As to `CCCCCCCC=O` [1-octanal], in series [1], the “Mucus loss initial test” value is 3.82 % w/w, the “Mucus loss 24 test” value stood at 2.98 % w/w, the “Potency - loss of body weight relative to metaldehyde after deduction of weight loss from the control” value worked out at 58% and the Combined mucus loss worked out at 6.8 % w/w. Moreover, in series [1], the “toxicity in mollusc foot contact tests relative to metaldehyde” value was “less than single fold reductions”, the “Potency - loss of mucus relative to metaldehyde” value was determined as 72%, the “Reduction in toxic response relative to metaldehyde: Loss of body weight (Table 3)” value is reported as 0.58 and the “Reduction in toxic response relative to metaldehyde: Loss of mucus (Table 2)” value is 0.72. The “Remaining body weight” value in series [1] (24 h after initial treatment) came out at 78.6 wt %. The “Remaining body weight” value in series [1] (48 h after initial treatment) came to 68.7 wt %. In series [2], the Water solubility is 394.3 µg/mL and the VP is on record as 1.49 mm Hg. Further, in series [3], the “oral toxicity in rats lower relative to metaldehyde” value is recorded as “approximately 8 fold”. In addition, in series [4], the “LD50 acute oral toxicity” value is given as “LD 50 4616 mg/kg”.
As to `CC=O` [Acetaldehyde, reference compound], the VP in series [2] is on record as 902 mm Hg. Also, in series [4], the “LD50 acute oral toxicity” value is listed as “LD50 661 mg/kg”.
Consider `CCCC=O` [Butanal], for which the VP in series [2] is given as 108 mm Hg.
For `CCCCCC=O` [Hexanal], the VP in series [2] is given as 9.57 mm Hg.
Turning to `CC1OC(C)OC(C)OC(C)O1` (stereo not shown) [Metaldehyde, reference compound], in series [1], the “Mucus loss initial test” value is given as 5.55 % w/w, the “Mucus loss 24 test” value worked out at 3.94 % w/w, the “Potency - loss of body weight relative to metaldehyde after deduction of weight loss from the control” value came out at 100% and the Combined mucus loss is on record as 9.49 % w/w. For the same compound, in series [1], the “Potency - loss of mucus relative to metaldehyde” value is 100%. In addition, in series [1] (24 h after initial treatment), the “Remaining body weight” value was found to be 68.5 wt %. Besides, in series [1] (48 h after initial treatment), the “Remaining body weight” value is 55.4 wt %. Moreover, in series [2], the VP is 0.000674 mm Hg. In series [4], the “LD50 acute oral toxicity” value was “LD50 630 mg/kg”.
Take `CC1OC(C)OC(C)O1` (stereo not shown) [Paraldehyde, reference compound]: in series [2], the Water solubility is 24140 µg/mL and the VP is recorded as 15.7 mm Hg. Also, the “LD50 acute oral toxicity” value in series [4] is “LD 50 2711 mg/kg”.
Turning to `CCC=O` [Propanal, reference compound], the VP in series [2] was 317 mm Hg.
